Data taken from patent US20060127996A1, “Method of extraction of isothiocyanates into oil from glucosinolate-containing plants and method of producing products with oil containing isothiocyanates extracted from glucosinolate-containing plants” (Johns Hopkins University, priority 2004, published 2006).

Columns and labels:
[1] = remark: listed apart in the source
Experimental: The remainder of the hydrolyzed seed mash (100 g-0.79 g) was partitioned into a total of 400 ml EtOAc, by vigorous stirring and shaking. The mixture was then allowed to settle in a large graduate cylinder, the upper 100 ml was removed and evaporated under vacuum. […] This oil was then vortexed (1 g volume per 100 ml of water), then allowed to re-equilibrate into two phases, filtered, and the aqueous phase used for HPLC determination of sulforaphane content as described above.

partition in biphasic mixture of ethyl acetate and water (pure sulforaphane spiked into ethyl acetate/water): partitions to the organic fraction
partition in biphasic mixture of hexane and water (pure sulforaphane spiked into hexane/water): partitions to the aqueous fraction
solubility in oil ([1]; broccoli seed oil): oil soluble
solubility in hexane ([1]; hexane): not soluble
solubility in water ([1]; water, back-extraction of the oil): reasonable solubility
SMILES: C[S+]([O-])CCCCN=C=S (centres unmarked) [sulforaphane, 4-methylsulfinylbutyl isothiocyanate]
